These results are taken from patent EP0319986B1, “Anti-plasmin depressant” (NIPPON SHINYAKU COMPANY, LIMITED, priority 1987, dated 1989).

Counter-ions that a name gives are not always drawn.

The test system of the first series is α2-plasmin inhibitor (α2-PI). Put plainly: α2-PI activity in culture medium of HepG2 cells (plasmin / S-2251 chromogenic substrate). It is filed as cell-based, human. As to conditions: 200 µg/ml of compound, serum-free medium, 3 to 4 days, culture without test compound = 100%, n=3. The method, then: It is known that human hepatic cancer-derived HepG2 cells synthesize and secrete α2-plasmin inhibitor (α2-PI). The HepG2 cells, 2 x 10^6, were inoculated on a plastic culture plate (diameter of 100 mm) made by Falcon Inc. and cultured in Eagle's minimum medium containing 10% bovine fetal serum.
Three days after, cells adhered to the bottom of the plate were washed twice with Dulbecco's phosphate buffer followed by culturing in 8 ml of serum-free Eagle's medium (containing no Phenol Red) containing 200 µg/ml of a specimen of the compound of the present invention for further 3 to 4 days. […]
To 100 µl of the concentrated sample, 50 µl of 15 mCU plasmin solution was added and further 50 µl of 0.25 µmole S-2251 synthetic chromogenic substrate solution was added thereto followed by reacting at 37°C for 10 minutes. By adding 1 ml of 2% citrate solution, the reaction was stopped. p-Nitroanilide released from the S-2251 substrate was measured at O.D. of 405 nm.
A sample in which decomposition of the S-2251 substrate was measured using the aforesaid Tris buffer instead of the concentrated sample was made a control showing 100% plasmin activity and the concentrated sample cultured without adding a test compound was made a control showing 100% α2-PI activity. […]
With Nojirimycin bisulfite [Compound No. 6], the “α2-PI activity (%)” value worked out at 67%.
Consider N-Isoprenylmoranoline [Compound No. 9], for which the “α2-PI activity (%)” value is reported as 55%.

The test system of another series is CPAE (calf pulmonary artery endothelia). Put plainly: Thrombolytic test in vitro: CPAE culture supernatant on fibrin plate, lysis circle. It counts as cell-based. As to conditions: 5 µl of 0.2 mg/ml compound solution per well of CPAE cells, 72 hours; 5 µl supernatant on fibrin plate with plasminogen, 4 hours; 4 mm or more = thrombolytic ability induced. On the procedure:
Thrombolytic activity-inducing ability in the established vascular endothelial cell culture system was examined using CPAE (calf pulmonary artery endothelia).
[…] cells were purchased from Dainippon Pharmaceutical Co., Ltd., Department of Laboratory Products. CPAE cells were subcultured in 10% FCS-Eagle MEM medium charged in a culture flask of 25 cm^2. From the cell suspension fractionated upon subculture, 0.1 ml was transferred into a test tube with a sterilized pipette. Then, the cell suspension was diluted to 10 fold with 0.9 ml of Trypan Blue solution and a cell count was counted with a cell counter. After diluting with 10% FCS-Eagle MEM medium so as to have a cell count of 2 x 10^5 cells/ml, 100 µl each/well, namely, 2 x 10^4 cells/well, of the dilution was dispensed in a 96 well microtiter plate (manufactured by Corning) with a micropipette. The plate was incubated at 37°C in 5% CO2.
The compound used according to the present invention was dissolved in medium in 0.2 mg/ml; the compound that was insoluble in the medium was dissolved in less than 1% of DMSO and the resulting solution was aseptically filtered through a filter; 5 µl of the solution was added to the well with a sterilized micropipette 24 hours after onset of the incubation. After culturing at 37°C for 72 hours in 5% CO2, the collected culture supernatant was provided for measurement.
The measurement was performed as follows. Plasminogen, 5 µl, was charged in a well of fibrin plate (manufactured by Kitazato institute), which was allowed to stand until diffusion was completed. After diffusion, 5 µl of the supernatant was charged and then put in a carbon dioxide gas incubator of 37°C. Four hours after, evaluation was made by formation of a transparent lysis circle by fibrinolysis.
In the case of forming a circle of 4 mm or more due to fibrinolysis, it was judged that thrombolytic ability of CPAE cells was induced.
After the fibrinolytic activity was checked over, the well was fixed with 2.5% of glutaraldehyde in a final concentration. Then, the solution was discarded and the system was washed with PBS. After washing, moisture was removed. After staining with 100 µl of 0.1% crystal violet and allowing stand for 2 to 3 minutes, the system was washed with running water. After an excess of the staining solution was washed out, moisture was removed and the dye bound to the cells was eluted by 100 µl of methanol. Using multiscanning (Titertech), measurements were performed at a wavelength of 580 nm in accordance with the ABS method and the matrix method to confirm that the cells were not injured.
In the case of `OC[C@@H]1[C@@H](O)[C@H](O)[C@@H](O)CN1CCCCc1ccccc1` [Compound No. 15, N-4-Phenylbutylmoranoline tosylate], the “Diameter (mm) of the circle due to fibrinolysis” value (from here on “Diameter (mm) of the circle due”) worked out at 6.3 mm.
Regarding `OCC1C(O)C(O)C(O)CN1CC=Cc1ccccc1` (stereo not shown) [Compound No. 23, N-Cinnamylmoranoline], the “Diameter (mm) of the circle due” value is listed as 8.4 mm.
`OC[C@@H]1[C@@H](O)[C@H](O)[C@@H](O)CN1CCC=Cc1ccccc1` [Compound No. 28, N-(4-Phenyl-3-butenyl)moranoline tosylate]: the “Diameter (mm) of the circle due” value worked out at 8.3 mm.
Regarding `COc1cccc(C(C)=CCCN2C[C@H](O)[C@@H](O)[C@H](O)[C@H]2CO)c1` [Compound No. 36, N-(4-m-Methoxyphenyl-3-pentenyl)moranoline], the “Diameter (mm) of the circle due” value is reported as 7.6 mm.
For `CC(C)=CCC/C(C)=C/CN1C[C@H](O)[C@@H](O)[C@H](O)[C@H]1CO` [Compound No. 24, N-Geranylmoranoline tosylate], the “Diameter (mm) of the circle due” value was found to be 7.6 mm.
Same read-out and setting: in the case of `CC(=CCN1C[C@H](O)[C@@H](O)[C@H](O)[C@H]1CO)c1cccc(C)c1` [Compound No. 35, N-(γ-Methyl-m-methylcimnnamyl)moranoline] it was 7.8 mm.
For N-Isoprenylmoranoline [Compound No. 9], the “Diameter (mm) of the circle due” value was 8.2 mm.
Take `CCOC(=O)c1ccc(OCCN2C[C@H](O)[C@@H](O)[C@H](O)[C@H]2CO)cc1` [Compound No. 37, N-(p-Ethoxycarbonylphenoxyethyl)moranoline]: the “Diameter (mm) of the circle due” value was found to be 6.9 mm.
Consider `CC(=Cc1ccccc1)CN1C[C@H](O)[C@@H](O)[C@H](O)[C@H]1CO` [Compound No. 29, N-(3-Phenyl-2-methyl-2-propenyl)moranoline], for which the “Diameter (mm) of the circle due” value is on record as 7.1 mm.
Take `OC[C@@H]1[C@@H](O)[C@H](O)[C@@H](O)CN1CCCOc1ccccc1Cl` [Compound No. 30, N-(3-o-Chlorophenoxypropyl)moranoline]: the “Diameter (mm) of the circle due” value was determined as 7.6 mm.
With `OC[C@@H]1[C@@H](O)[C@H](O)[C@@H](O)CN1CCC1CCCC1` [Compound No. 19, N-(2-Cyclopentylethyl)moranoline tosylate], the “Diameter (mm) of the circle due” value was 5.8 mm.
Regarding `CCCCCCN1C[C@H](O)[C@@H](O)[C@H](O)[C@H]1CO` [Compound No. 8, N-Hexylmoranoline tosylate], the “Diameter (mm) of the circle due” value came out at 6.3 mm.
On to `CCOc1ccc(C=CCN2CC(O)C(O)C(O)C2CO)cc1` (stereo not shown) [Compound No. 33, N-(p-Ethoxycinnamyl)moranoline], for which the “Diameter (mm) of the circle due” value worked out at 7.8 mm.
As for `CCCCCCCCC(O)CN1C[C@H](O)[C@@H](O)[C@H](O)[C@H]1CO` (stereo partly shown) [Compound No. 10, N-(2-Hydroxydecyl)moranoline tosylate], the “Diameter (mm) of the circle due” value is listed as 4.5 mm.
For `CC(C)=CCCC(C)=CCCC(C)=CCN1CC(O)C(O)C(O)C1CO` (stereo not shown) [Compound No. 26, N-Farnesylmoranoline tosylate], the “Diameter (mm) of the circle due” value came to 5.7 mm.
Regarding `OC[C@@H]1[C@@H](O)[C@H](O)[C@@H](O)CN1CC=Cc1ccccc1` [Compound No. 14, N-Cinnamylmoranoline hydrochloride], the “Diameter (mm) of the circle due” value was 5.9 mm.
For `OC[C@@H]1[C@@H](O)[C@H](O)[C@@H](O)CN1CCCCCc1ccccc1` [Compound No. 18, N-5-(Phenylpentyl)moranoline tosylate], the “Diameter (mm) of the circle due” value came out at 6.8 mm.
On the same count and under the same terms, in the case of `OC[C@@H]1[C@@H](O)[C@H](O)[C@@H](O)CN1CC(O)COc1ccccc1` (stereo partly shown) [Compound No. 25, N-(2-Hydroxy-3-phenoxypropyl)moranoline tosylate] it was 4.1 mm; in that of `OC[C@@H]1[C@@H](O)[C@H](O)[C@@H](O)CN1CCCOc1ccccc1` [Compound No. 17, N-(3-Phenoxypropyl)moranoline tosylate], 7.5 mm; in that of `Cc1ccc(CCCCN2C[C@H](O)[C@@H](O)[C@H](O)[C@H]2CO)cc1F` [Compound No. 32, N-[4-(3-Fluoro-4-methylphenyl)butyl]moranoline], 7.5 mm.
For the compound `CNC(=O)CCCCCCCCCCN1C[C@H](O)[C@@H](O)[C@H](O)[C@H]1CO` [Compound No. 27, N-10-(N-Methylcarbamoyl)decylmoranoline], the “Diameter (mm) of the circle due” value was 8.5 mm.
Still for that read-out and setting: the same measure for `CC(C)Oc1ccc(C=CCN2CC(O)C(O)C(O)C2CO)cc1` (stereo not shown) [Compound No. 34, N-(p-Isopropoxycinnamyl)moranoline]: 7.6 mm; for `OC[C@@H]1[C@@H](O)[C@H](O)[C@@H](O)CN1CCCc1ccccc1` [Compound No. 12, N-(3-Phenylpropyl)moranoline tosylate]: 5.9 mm; for `CCN1C[C@H](O)[C@@H](O)[C@H](O)[C@H]1CO` [Compound No. 22, N-Ethylmoranoline]: 6.5 mm.
`CC(=CCN1C[C@H](O)[C@@H](O)[C@H](O)[C@H]1CO)c1ccc(Br)cc1` [Compound No. 31, N-(γ-Methyl-4-bromocinnamyl)moranoline]: the “Diameter (mm) of the circle due” value came out at 7.9 mm.
As for `COCCOc1cccc(C(C)=CCN2C[C@H](O)[C@@H](O)[C@H](O)[C@H]2CO)c1` [Compound No. 20, N-[3-(3-Methoxyethoxyphenyl)-2-butenyl]moranoline], the “Diameter (mm) of the circle due” value was found to be 8.0 mm.
The same measure, in the same setting: the same measure for `O[C@H]1[C@H](O)[C@@H](O)CN2CC[C@H](O)[C@H]12` [Compound No. 38, Castanospermine]: 6.9 mm; for `C[N+]1(C)C[C@H](O)[C@@H](O)[C@H](O)[C@H]1CO` [Compound No. 21, N,N-Dimethylmoranoline ammonium iodide]: 5.6 mm.
As to `CCCCN1C[C@H](O)[C@@H](O)[C@H](O)[C@H]1CO` [Compound No. 2a, N-(n-Butyl)moranoline], the “Diameter (mm) of the circle due” value turned out to be 7.5 mm.

Test system in another series: not listed separately
The experiment in a line: Test on acute toxicity. As to conditions: mouse, in vivo, ip. On the procedure: Four (4) ddY strain male mice of 6 week age were used for each group of the test sample.
In intravenous administration, each sample was dissolved in 0.9% physiological saline and the solution was administered through the tail vein. In intraperitoneal administration, each sample was suspended in 0.5% CMC-physiological saline and 0.1 ml of the suspension per […] of mouse body weight was intraperitoneally administered. In oral administration, each sample was suspended in 0.5% CMC-physiological saline and 0.2 ml of the suspension per […] administered.
Observation was made immediately after the administration. After observation for 1 week after the administration, the mice was sacrificed with chloroform and subjected to autopsy.
As to `OC[C@H]1NC[C@H](O)[C@@H](O)[C@@H]1O` [Compound No. 1, Moranoline], the LD50 (commonly the dose expected to kill half of the subjects tested) at 168 h came out at 5000 mg/kg.

The series is the same for the next values; noted with them: mouse, in vivo, iv.
As for `OC[C@H]1NC[C@H](O)[C@@H](O)[C@@H]1O` [Compound No. 1, Moranoline], the LD50 at 168 h came out at 3240 mg/kg.

Staying with this series, now noted: mouse, in vivo, po.
On to `OC[C@H]1NC[C@H](O)[C@@H](O)[C@@H]1O` [Compound No. 1, Moranoline], for which the 50% lethal dose (LD50) at 168 h was found to be 7500 mg/kg.
